Measurements from patent US4199579A, “Carbamates of 2-haloergolines and 2-haloergolenes and process for the preparation thereof” (priority 1975, dated 1980).
Values after ≈ are worked out from the molar mass of the structure shown. Where a name gives a salt, the structure may show the parent alone. Read-outs that look alike come from different tables or passages of the source.

Key:
[1] = Acute toxicity in mice; assay type: in vivo, mouse; details: mouse, in vivo, mouse
From the text: (§1) |Toxicity LD50 mice orally

[2] = test system: isolated ileum of guinea pig; assay: AntiBaCl2 activity in vitro (c): antagonism of the spasmogenic action of barium chloride on the isolated ileum; assay type: cell-based; details: Cavia porcellus, read-out: AntiBaCl2 (c) vitro EC50
Description: (c) Magnus, Pflugers Arch.Ges.Physiol. 102, 123 (1904)
The substance antagonizes the spasmogenic action of the barium chloride on the isolated ileum of guinea pig at dosages of between 1 and 5 μg/ml. […] On the isolated caudal arteria of rat, the compound II inhibits the vaso-constricting effect as caused by the perfusion with hyperpotassium Ringer's solution.

[3] = test system: alpha-adrenergic receptors; assay: Antiadrenalic (antiadrenergic) activity in vitro (a): antagonism of the spasmogenic effect of adrenaline on the seminal vesicle; assay type: cell-based, guinea pig
From the text: More particularly the novel compounds display a vasodilatory activity on the peripheral circulatory system, an hypotensive activity and a spasmolytic effect on the gastrointestinal smooth muscles or a blocking activity towards the alpha-adrenergic receptors, both in "vitro" and in "vivo".
(a) J. Brugger, Helv. Physiol. Pharmacol. Acta 3, 117 (1945)
The product is antagonizing the spasmogenic effect of the adrenaline on the seminal vesicle of guinea pig at concentrations of between 0.1 and 10 pg/ml, as well as the vaso- constricting effect of the noradrenaline on the isolated and perfused caudal arteria of rat, at dosages of between 1 and 10 μg total. Furthermore it antagonizes the contracturing effect of adrenaline and noradrenaline on the "vas deferens" of guinea pig and rat, at concentrations of 0.1 to 10 ng/ml.

[4] = test system: alpha-adrenergic receptors; assay: Antiadrenalic activity in vivo (b): protection of rats from the lethal effect of adrenaline; design: species or system rat; details: for Antiadrenalic activity (b) vivo ED50: Table 2; for ED50 protecting rats from the lethal effect of adrenaline / activity higher than that of nicergoline: rat
[5] = test system: Antidepressant activity; assay: Antidepressant activity; assay type: in vivo; details: route not given
From the text: (§2) Coming now to examining the anti-asthmatic pharmaceutical compositions it has been ascertained that the compound described as D-2-bromo-6-methyl-8beta-(morpholinocarbolynoxymethyl)-ergoline, corresponding to the formula (4) is endowed with quite special [drawing 81] which render it particularly recommendable for the therapy of asthma. The compound of the formula (4) has the empirical formula C21 H26 N3 O3 Br and a mol. wt. of 448.38. It gives, with mineral and organic acid of nontoxic and pharmacologically acceptable nature, a number of salt. These are soluble in water as well as in the physiological solutions. Such are for example the maleate C25 H30 N3 O7 Br, m.p. 213° C.-216° C., or the methanesulfonate C22 H30 N3 O6 BrS, m.p. 265° C.-266° C. and can be prepared according to the conventional methods by treating the compound (4) with the equivalent quantities of the acid in an aqueous medium or in appropriate organic solvents and their mixtures such as the alcohols, the ethers, the lower aliphatic ketones and others, taken individually or in appropriate mixtures with each other as will be detailed in the Examples hereinafter. The pharmacological activity of the compound of formula (4) is unfolded in appropriate assays, carried out on the test animals and is especially conspicuous in the following test runs: […]

[6] = test system: ptosis from reserpine; assay: Antagonism to ptosis from reserpine; assay type: in vivo; details: po, read-out: Antagonism to ptosis from reserpine ED100
[7] = test system: Myorelaxing activity; assay: Myorelaxing activity; assay type: in vivo; details: route not given
From the text: as §2

[8] = test system: Anorexia; assay: Anorexia; assay type: in vivo; details: po; orally
[9] = test system: mice; assay: Acute toxicity in mice; assay type: in vivo, mouse; details: acute toxicity
From the text: as §1

[10] = test system: Anti-Parkinson activity; assay: Anti-Parkinson activity; assay type: in vivo; details: po; orally
[11] = molecular target: alpha-adrenergic receptors; details: in vitro; comparison compound, reference (d) or (e); cited from earlier work
[12] = test system: alpha-adrenergic receptors; details: e.v.; comparison compound, reference (e); cited from earlier work
[13] = test system: anaesthetized cat; assay: Arterial pressure in the anaesthetized cat; assay type: in vivo; details: Felis catus, iv, e.v., read-out: dosage from which arterial pressure is reduced
Description: (§3) In the anaesthetized cat and rat, the compound causes the arterial pressure to be reduced, starting from dosages of 50 and 30 μg/kg e.v. respectively. In the "pithed" rat the compound, when intravenously administered, antagonizes the hypertensive effect of the adrenaline (ED-50 46 mg/kg).

[14] = test system: Beagle dogs; assay: 7-month oral administration to Beagle dogs; assay type: in vivo, dog; details: 7 months, about 8 mg/kg per oral route
[15] = test system: histamine; assay: Anti-histaminic activity in vitro; assay type: cell-based; details: ratio to alpha-blocking concentration
[16] = test system: serotonin; assay: Anti-serotoninic activity in vitro; assay type: cell-based; details: ratio to alpha-blocking concentration
[17] = test system: central nervous system (CNS); assay: CNS behaviour tests (swimming of the rat, reserpine ptosis, tetrabenazine catatonia, motility and exploration, behaviour); assay type: in vivo, rat; mouse; rabbit; dog
From the text: The compound belongs to the class of the ergolene derivatives in which substances are found which cause stimulating effects on the central nervous system (CNS); several behaviour tests have been carried out on animals, in order to assess a possible exciting and hallucinogen action.

[18] = test system: acetylcholine; assay: Anti-acetylcholinic activity in vitro; assay type: cell-based; details: ratio to alpha-blocking concentration
[19] = test system: alpha-adrenergic receptors; assay: Protection of mice from the lethal effect of adrenaline; assay type: in vivo; details: mouse
[20] = test system: anaesthetized rat; assay: Arterial pressure in the anaesthetized rat; assay type: in vivo; details: iv, e.v., read-out: dosage from which arterial pressure is reduced
Description: as §3

[21] = test system: "pithed" rat; assay: Antagonism of the hypertensive effect of adrenaline in the pithed rat; assay type: in vivo; details: iv, intravenously, read-out: ED-50 antagonizing the hypertensive effect of adrenaline
Description: as §3

[22] = iv, e.v., Table 2, read-out: DL50 e.v. in the mouse

CN1C[C@H](COC(=O)N2CCCCC2)C[C@@H]2c3cccc4[nH]c(Br)c(c34)C[C@H]21 [Example 12, D-2-bromo-6-methyl-8beta-(piperidinocarbonyloxymethyl)-ergoline]
LD50 [1, 22]: 50 mg/kg | EC50 [2]: 3.5 µg/mL (≈ 7.84 µM) | Antiadrenalic activity (a) vitro EC50 [3]: 3.7 ng/mL | Antiadrenalic activity (b) vivo ED50 ([4]; e.v.): 0.0202 mg/kg

CN(C)C(=O)OC[C@@H]1C[C@@H]2c3cccc4[nH]c(Br)c(c34)C[C@H]2N(C)C1 [Example 4, D-2-bromo-6-methyl-8beta-(N,N-dimethylcarbamoyloxymethyl)-ergoline]
LD50 [1, 22]: 7.1 mg/kg | EC50 [2]: 10 µg/mL (≈ 24.6 µM) | Antiadrenalic activity (a) vitro EC50 [3]: 10 ng/mL | Antiadrenalic activity (b) vivo ED50 ([4]; e.v.): 0.0112 mg/kg

CN1C[C@H](COC(=O)N2CC3CCC(CC3)C2)C[C@@H]2c3cccc4[nH]c(Br)c(c34)C[C@H]21 [Example 20, D-2-bromo-6-methyl-8beta-(3-azabicyclo [3,2, 2]-nonanylcarbonyloxymethyl)-ergoline]
LD50 [1, 22]: 50 mg/kg | EC50 [2]: > 100 µg/mL | Antiadrenalic activity (a) vitro EC50 [3]: 375 ng/mL | Antiadrenalic activity (b) vivo ED50 ([4]; e.v.): 0.198 mg/kg

CN(C)CCCN1c2ccccc2CCc2ccccc21 [imipramine, reference compound]
ED100 [5]: 25 mg/kg | ED100 ([6]; orally): 25 mg/kg

CCC1(c2ccccc2)C(=O)NC(=O)NC1=O [phenobarbital, reference compound]
ED100 [7]: 100 mg/kg

CN1C[C@H](COC(=O)N2CCCCCC2)C[C@@H]2c3cccc4c3c(c(Br)n4C)C[C@H]21 [Example 14, D-2-bromo-1,6-dimethyl-8beta-(perhydroazepinylcarbonyloxymethyl) ergoline]
ED100 [8]: 5 mg/kg | ED100 [6]: 0.01 mg/kg | LD50 ([1]; iv, mice, intravenously, compound (3), read-out: Toxicity LD50 mice, intravenously): 65 to 83 mg/kg | LD50 ([1]; po, mice, orally, compound (3), read-out: Toxicity LD50 mice, orally): 600 mg/kg | acute toxicity in words [9]: well tolerated and poorly toxic | ED100 [10]: 20 mg/kg

CN1C[C@H](COC(=O)N2CCCC2)C[C@@H]2c3cccc4[nH]c(Br)c(c34)C[C@H]21 [Example 10, D-2-bromo-6-methyl-8beta-(pyrrolydycarbonyloxy-methyl)-ergoline maleate]
LD50 [1, 22]: 15 mg/kg | EC50 [2]: 4 µg/mL | Antiadrenalic activity (a) vitro EC50 [3]: 2 ng/mL | Antiadrenalic activity (b) vivo ED50 ([4]; e.v.): 0.0155 mg/kg

CCN(CC)C(=O)OC[C@@H]1C[C@@H]2c3cccc4[nH]c(Br)c(c34)C[C@H]2N(C)C1 [Example 6, D-2-bromo-6-methyl-8beta-(N,N-diethylcarbamoyloxymethyl)-ergoline]
LD50 [1, 22]: 13.7 mg/kg | EC50 [2]: 3.8 µg/mL (≈ 8.75 µM) | Antiadrenalic activity (a) vitro EC50 [3]: 4.7 ng/mL | Antiadrenalic activity (b) vivo ED50 ([4]; e.v.): 0.0803 mg/kg

dihydroergotoxine
Antiadrenalic activity (a) vitro EC50 [11]: 0.078 µg/mL | Antiadrenalic activity (b) vivo ED50 [12]: 0.05 mg/kg

CC(N)Cc1ccccc1 (centres unmarked) [amphetamine, reference compound]
ED100 [8]: 5 mg/kg

N[C@@H](Cc1ccc(O)c(O)c1)C(=O)O [L-dopa, reference compound]
ED100 [10]: 300 mg/kg

CN1CCN(C(=O)OC[C@@H]2C[C@@H]3c4cccc5[nH]c(Br)c(c45)C[C@H]3N(C)C2)CC1 [Example 18, D-2-bromo-6-methyl-8beta-(4,methylpiperazinyl-carbonyloxymethyl)-ergoline]
LD50 [1, 22]: 27.3 mg/kg | EC50 [2]: > 100 µg/mL | Antiadrenalic activity (a) vitro EC50 [3]: 50 ng/mL | Antiadrenalic activity (b) vivo ED50 ([4]; e.v.): > 0.32 mg/kg

CN1C[C@H](COC(=O)N2CCC2)C[C@@H]2c3cccc4[nH]c(Br)c(c34)C[C@H]21 [Example 7, D-2-bromo-6-methyl-8beta-(azetidinylcarbonyloxymethyl)-ergoline]
LD50 [1, 22]: 8.7 mg/kg | EC50 [2]: 1.4 µg/mL (≈ 3.35 µM) | Antiadrenalic activity (a) vitro EC50 [3]: 5 ng/mL | Antiadrenalic activity (b) vivo ED50 ([4]; e.v.): 0.05 mg/kg

CN1C[C@H](COC(=O)N2CCCCCC2)C[C@@H]2c3cccc4[nH]c(Br)c(c34)C[C@H]21 [Example 2, D-2-bromo-6-methyl-8beta-(perhydroazepinylcarbonyloxymethyl)-ergoline]
LD50 [1, 22]: 39.4 mg/kg | minimal effective dose [13]: ≥ 0.05 mg/kg | macroscopic or microscopic alterations of the main organs [14]: did not cause macroscopic or microscopic alterations | modifications of the weight, hematological and hematochemical parameters [14]: did not cause modifications | EC50 [2]: 3.1 µg/mL (≈ 6.73 µM) | Antiadrenalic activity (a) vitro EC50 [3]: 0.0017 ng/mL | anti-histaminic activity: concentration higher than that showing the alpha-blocking effect [15]: 800 times | anti-serotoninic activity: concentration higher than that showing the alpha-blocking effect [16]: 200 times | Antiadrenalic activity (b) vivo ED50 ([4]; e.v.): 0.008 mg/kg | ED50 protecting rats from the lethal effect of adrenaline ([4]; e.v.): 0.008 mg/kg | activity higher than that of nicergoline ([4]; intravenously): 2.5 times | activity higher than that of nicergoline ([4]; orally): 24 times | ED50 protecting rats from the lethal effect of adrenaline ([4]; per os): 0.37 mg/kg | ECG modifications ([17]; in vivo): ECG modifications of sedative type were always detected | exciting property in behaviour tests ([17]; rat, mice, rabbit, dog): no evidence were found of any exciting property | anti-acetylcholinic activity: concentration higher than that showing the alpha-blocking effect [18]: 4500 times | ED50 protecting mice from the lethal effect of adrenaline ([19]; e.v.): 0.051 mg/kg | ED50 protecting mice from the lethal effect of adrenaline ([19]; per os): 0.61 mg/kg | minimal effective dose [20]: ≥ 0.03 mg/kg | ED50 [21]: 0.046 mg/kg

CO[C@]12C[C@@H](COC(=O)c3cncc(Br)c3)CN(C)[C@@H]1Cc1cn(C)c3cccc2c13 [nicergoline, reference compound]
LD50 [1, 22]: 74.3 mg/kg | EC50 ([2]; in vitro): 2.1 µg/mL (≈ 4.34 µM) | Antiadrenalic activity (a) vitro EC50 [11]: 0.007 µg/mL | Antiadrenalic activity (b) vivo ED50 [12]: 0.02 mg/kg
